What was measured:
Format in all cases: cell-based
[1] = tested on: mCherry-LAMP1 expressing HEK293 cells
[2] = tested on: mCherry-LAMP1 expressing HEK293 cells; remark: listed apart in the source
[3] = tested on: mCherry-LAMP1 expressing HEK293 cells; remark: listed apart in the source
[4] = tested on: endocytic vesicle pH in HEK293 cells
[5] = tested on: GFP-Rab5 expressing HEK293 cells
[6] = tested on: vesicular acidification in HEK293 cells

Cc1cccc(/C=N/Nc2cc(N3CCOCC3)nc(OCCc3ccccn3)n2)c1 [Apilimod, apilimod]
effect on LAMP1+ structures compared to DMSO [1]: significantly altered LAMP1 structures

CO/C1=C\C(C)=C\[C@@H](C)[C@@H](O)[C@@H](C)C/C(C)=C/C=C/[C@H](OC)[C@@H]([C@@H](C)[C@@H](O)[C@H](C)[C@@]2(O)C[C@@H](O)[C@H](C)[C@@H](C(C)C)O2)OC1=O [bafilomycin, bafilomycin A1]
average number of large, dilated vesicles per cell, treatment after apilimod [2]: ~1 | average number of dilated vesicles >1 μm per cell, pre-treatment before apilimod [3]: ~1 | large (>1 μm) vesicle pHrodo fluorescence [4]: significant decrease | average size of Rab5+ punctate vesicles [5]: 400 nm | reversibility of inhibition of vesicular acidification [6]: full recovery of acridine orange pH-dependent shift to red was not observed

COc1cc2c(O)c3c(c(-c4ccc5c(c4)OCO5)c2cc1OC)C(=O)OC3 [1.1, diphyllin]
acidification activity after the 24 h washout period [6]: 90.2 ± 11.5% | acidification activity, initial response (immediate post washout) [6]: 57.5 ± 9.0%

From PMC9112336 (ACS infectious diseases, 2022)
